In US20230023802A1, “STABILIZED DRUG FORMULATIONS AND METHODS OF LOADING DRUG DELIVERY IMPLANTS” (THE METHODIST HOSPITAL SYSTEM, priority 2019, published 2023):
Counter-ions that a name gives are not always drawn. Like-named read-outs stand apart in the source and are kept apart here.

Legend:
[1] = after 1 month, implant with 200 nm membrane in PBS sink, normalized to first time point
Method: Data are normalized to the values of day 1.
Urocanic acid was then tested. […] This formulation was loaded into an implant equipped with a 200 nm membrane. The implant was placed in 22 mL solution of PBS (the sink solution). The sink solution was replaced every 40 hours with fresh PBS. […] All results were normalized by the results of the first time point to compensate for the degradation that takes place in the sink solution.

physchem = settings: pH 7.4
[2] = pH=5.3

Row | SMILES | percentage of tenofovir alafenamide in the released mixture of tenofovir derivatives [1] [%] | half-life (physchem) [h] | hydrolysis half-life (t1/2) [2] | percentage of tenofovir alafenamide in the released mixture of tenofovir derivatives ([1]; listed as free base tenofovir alafenamide) [%]
1 | CC(C)OC(=O)[C@H](C)N[P@](=O)(CO[C@H](C)Cn1cnc2c(N)ncnc21)Oc1ccccc1 [tenofovir alafenamide fumarate] | 45 | – | – | –
2 | CC(C)OC(=O)[C@H](C)N[P@](=O)(CO[C@H](C)Cn1cnc2c(N)ncnc21)Oc1ccccc1 [tenofovir alafenamide] | – | < 48 | over 4 months | 82
